Molecular target: T1, dmJMJD7 (Drosophila melanogaster, UniProt Q9VU77)
T1 construct: gene JMJD7; full-length dmJMJD7, aa 1–316, N-terminally His6-tagged
Assay: crystal structure; SPE-MS inhibition assay with DRG1 peptide
Format: biochemical

T1 sequence (Q9VU77 whole entry, the tested form may be a part): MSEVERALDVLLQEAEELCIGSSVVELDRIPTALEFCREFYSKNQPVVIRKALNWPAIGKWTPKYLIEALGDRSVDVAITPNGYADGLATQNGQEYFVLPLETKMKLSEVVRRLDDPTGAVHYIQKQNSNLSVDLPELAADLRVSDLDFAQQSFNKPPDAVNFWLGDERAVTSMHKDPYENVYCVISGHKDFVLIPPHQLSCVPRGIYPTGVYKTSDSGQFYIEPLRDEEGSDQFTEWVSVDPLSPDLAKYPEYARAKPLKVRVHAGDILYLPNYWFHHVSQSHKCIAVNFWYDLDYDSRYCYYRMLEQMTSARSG

Question: For `O=C(O)c1ccnc(C(=O)O)c1` [2,4-PDCA, pyridine-2,4-dicarboxylate], which IC50 is on record?
Answer: The IC50 was 1.34 µM.

Question: For `C[C@@H](NC(=O)C(=O)O)C(=O)O` [NODA, N-oxalyl-D-alanine], which IC50 is on record?
Answer: The IC50 was 4.14 µM.

Question: For `O=C(O)CNC(=O)C(=O)O` [NOG, N-oxalylglycine], which IC50 is on record?
Answer: The IC50 was 0.3 µM.

Molecular target: T1, dmJMJD7
Assay: crystal structure
Format: binding

Question: Which crystal structure does the source give for `O=C(O)CCC(=O)C(=O)O` [2OG, 2-oxoglutarate] here?
Answer: The crystal structure was “crystals of His6-dmJMJD7.Mn complexed with its co-substrate 2OG or co-product succinate”.

Question: With `O=C(O)C(=O)N[C@H](Cc1ccccc1)C(=O)O` [NOFD, N-oxalyl-D-phenylalanine] as the compound, how does the crystal structure read?
Answer: The crystal structure was “dmJMJD7.N-oxalyl-D-phenylalanine (PDB: 7YXL)”.

Question: Which crystal structure does the source give for `O=C(O)CCC(=O)O` [succinate] here?
Answer: Its crystal structure is “dmJMJD7.succinate (PDB: 7YXH)”.
